# Patent publication US20090117083A1, “IMMUNOMODULATORY ALKALOIDS” (M N L PHARMA LIMITED, priority 2004, published 2009)
# Tested on: B16-F10 tumour cells
# Assay: Control of lung metastasis in mice (B16-F10)
# Assay type: in vivo, C57/bl6 mice
# Details: 50 mg/kg s/c on days 2 and 4; lungs on day 14
# Method: Mice (C57/bl6 under i/p ketamine anaesthesia) were challenged i/v (tail vein) with 5×10^4 B16-F10 tumour cells in a final volume of 100 μl per mouse on day 0. Test compounds (50 mg/kg in 200 μl sterile non-pyrogenic saline) were administered sic (right flank) on days 2 and 4. On day 14 the mice were sacrifices and the lungs dissected and stained in Indian ink solution (150 ml bidistilled water, 30 ml India Ink, 4 drops NH4OH) for 10 minutes then fixed for at least 24 hr in Fakete's solution (90 ml 37% formaldehyde, 900 ml 70% EtOH and 45 ml glacial acetic acid). The metastases in the stained and fixed lungs could then be visualized, counted and photographed.
structure (smiles),measurement,value
OC[C@@H]1[C@@H](O)[C@H](O)[C@H]2[C@H](O)[C@@H](O)CN21 [casuarine (8)],Metastatic morphology,Metastasis restricted to apical tip of lung
